Here are results for 1 molecule from patent US4698327A, “Novel glycopeptide derivatives” (priority 1986, dated 1987).

Each structure is given as a SMILES string. Values after ≈ are worked out from the molar mass of the structure shown.

Assay [1] has as its system Streptococcus pyogenes C203. Description: MIC, standard agar-dilution assay. Type of assay: cell-based.
For assay [2], the system named is Staphylococcus aureus S13E. Type of assay: cell-based. The settings on record: agar dilution.
Assay [3] deals with Staphylococcus aureus X400. Description: MIC, standard agar-dilution assay. The format is cell-based.
Assay [4] concerns Staphylococcus epidermidis 222. Description: MIC, standard agar-dilution assay. Type of assay: cell-based.
In assay [5] the test system is Streptococcus sp. group D 2041. The experiment in a line: MIC, standard agar-dilution assay. The format is cell-based.
For assay [6], the system named is Klebsiella pneumoniae KAE. The experiment in a line: MIC, standard agar-dilution assay. The format is cell-based.
Assay [7] deals with Haemophilus influenzae C.L. The experiment in a line: MIC, standard agar-dilution assay. The format is cell-based.
Assay [8] concerns Streptococcus pneumoniae. The settings on record: Streptococcus pneumoniae infection in mice; two doses, administered subcutaneously.
Assay [9] relates to Streptococcus pyogenes. The following applies: Streptococcus pyogenes infection in mice; two doses, administered subcutaneously.
The subject of assay [10] is Staphylococcus aureus V41. The experiment in a line: MIC, standard agar-dilution assay. Type of assay: cell-based.
The test system of assay [11] is Escherichia coli N10. The experiment in a line: MIC, standard agar-dilution assay. Type of assay: cell-based.
Assay [12] has as its system Staphylococcus aureus NRRL B313. The following applies: agar dilution. For orientation: In agar dilution, organisms are placed on agar that contains the substance at set levels.
Assay [13] concerns Streptococcus pneumoniae Park 1. The format is cell-based. The following applies: agar dilution.
Assay [14] deals with Streptococcus faecium ATCC 9790. The experiment in a line: MIC, standard agar-dilution assay. The format is cell-based.
The subject of assay [15] is Escherichia coli EC14. Description: MIC, standard agar-dilution assay. Type of assay: cell-based.
The subject of assay [16] is Klebsiella pneumoniae X26. The experiment in a line: MIC, standard agar-dilution assay. The format is cell-based.
Assay [17] relates to Haemophilus influenzae 76. The experiment in a line: MIC, standard agar-dilution assay. Type of assay: cell-based.
Assay [18] concerns Staphylococcus epidermidis EPI1. The format is cell-based. The following applies: agar dilution.
Assay [19] has as its system Escherichia coli TEM. Description: MIC, standard agar-dilution assay. The format is cell-based.
For assay [20], the system named is Staphylococcus aureus. The following applies: Staphylococcus aureus infection in mice; two doses, administered subcutaneously.
In assay [21] the test system is Klebsiella pneumoniae X68. Description: MIC, standard agar-dilution assay. Type of assay: cell-based.

As to `CCCCCCCCCCN(C)C(CC(C)C)C(=O)NC1C(=O)NC(CC(N)=O)C(=O)NC2C(=O)NC3C(=O)NC(C(=O)NC(C(=O)O)c4cc(O)cc(O)c4-c4cc3ccc4O)C(O)c3ccc(c(Cl)c3)Oc3cc2cc(c3OC2OC(CO)C(O)C(O)C2OC2CC(C)(N)C(O)C(C)O2)Oc2ccc(cc2Cl)C1O` (stereo not drawn) [Compound 3, N^leu --(n-decyl)vancomycin], the MIC in [1] was 0.5 µg/mL (≈ 0.315 µM); in assay [2], 0.5 µg/mL (≈ 0.315 µM); in assay [3] it was 0.5 µg/mL (≈ 0.315 µM); in assay [4] it was 1 µg/mL (≈ 0.629 µM); in assay [5], 1 µg/mL (≈ 0.629 µM); in [6], more than 128 µg/mL. Besides, the MIC was 128 µg/mL (≈ 80.5 µM) in [7]; 0.5 µg/mL (≈ 0.315 µM) in assay [10]; more than 128 µg/mL in assay [11]; 0.5 µg/mL (≈ 0.315 µM) in [12]; 0.5 µg/mL (≈ 0.315 µM) in assay [13]; 0.5 µg/mL (≈ 0.315 µM) in assay [14]. Also, the MIC was more than 128 µg/mL in assay [15]; more than 128 µg/mL in assay [16]; more than 128 µg/mL in assay [17]; 2 µg/mL (≈ 1.26 µM) in [18]; more than 128 µg/mL in assay [19]; more than 128 µg/mL in assay [21]. Moreover, the ED50 in assay [8] is reported as 3.6 mg/kg/2; in assay [9], 4.6 mg/kg/2; in assay [20], more than 5 mg/kg/2.
